pIC50: −log10 of the molar value. Where a name gives a salt, the structure may show the parent alone.
How the values were obtained:
ALDH1A1 enzyme = target: T1, ALDH1A1 enzyme (Homo sapiens, UniProt P00352); assay: ALDH1A1 enzymatic assay (in vitro); assay type: biochemical; details: ALDH1A1 enzyme 20 nM, NAD+ 1 mM, propionaldehyde 80 μM; read-out: ALDH1A1 IC50
T1 sequence (P00352 1-501): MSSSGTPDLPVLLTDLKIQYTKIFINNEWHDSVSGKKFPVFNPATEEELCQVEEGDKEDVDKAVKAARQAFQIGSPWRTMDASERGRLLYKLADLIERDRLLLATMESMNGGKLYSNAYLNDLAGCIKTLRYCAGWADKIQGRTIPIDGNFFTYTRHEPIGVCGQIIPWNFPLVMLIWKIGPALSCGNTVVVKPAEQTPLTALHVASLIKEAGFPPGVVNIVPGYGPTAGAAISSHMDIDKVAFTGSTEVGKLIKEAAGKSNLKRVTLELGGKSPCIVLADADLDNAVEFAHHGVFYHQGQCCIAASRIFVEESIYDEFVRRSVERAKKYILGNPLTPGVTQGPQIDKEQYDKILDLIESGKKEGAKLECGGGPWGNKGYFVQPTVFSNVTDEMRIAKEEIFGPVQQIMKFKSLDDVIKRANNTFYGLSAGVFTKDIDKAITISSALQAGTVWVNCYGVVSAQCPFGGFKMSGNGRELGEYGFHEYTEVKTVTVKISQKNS
Method in brief: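 ALDH1A1 (20 nM final) in 100 mM HEPES pH 7.5, 0.01% Tween 20 was preincubated 15 min at RT with compound (968 pM–57.2 μM final), then started with 1 mM NAD+ and 80 μM propionaldehyde. NADH fluorescence (ex 340/em 450 nm) followed kinetically for 10 min; change normalized to no-inhibitor and no-enzyme controls for percent inhibition and curve fitting.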

MIA PaCa-2 cells = assay: MIA PaCa2 cell-based assay (1,536-well high-content imaging ALDEFLUOR assay); design: species or system human; details: Homo sapiens, 0.5 h, ALDEFLUOR BAAA substrate 500 nM, 30 minutes
Method in brief: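 MIA PaCa-2 cells (1,000/well), plated overnight, given BAAA substrate (500 nM) plus Hoechst 33342 (0.5 nM), then compound (16-point, 1.4 nM–47.8 μM final; 0.5% DMSO). After 30 min at 37° C, ALDH activity imaged by high-content microscopy as BAA-retaining (FITC) cells versus Hoechst-stained nuclei.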

Compound	pIC50 (ALDH1A1 enzyme)	pIC50 (MIA PaCa-2 cells)
CCNC(=O)N1CCN(C(=O)c2cnc3cc(OC)ccc3c2N2CCC3(CC2)OCCO3)CC1 [Example 139, N-ethyl-4-(7-methoxy-4-(1,4-dioxa-8-azaspiro[4.5]decan-8-yl)quinoline-3-carbonyl)piperazine-1-carboxamide]	> 6.30	5.00 to 6.00
CCNC(=O)N1CCN(C(=O)c2cnc3ccc(Cl)cc3c2N2CCC(C)(C#N)CC2)CC1 [Example 121, 4-(6-chloro-4-(4-cyano-4-methylpiperidin-1-yl)quinoline-3-carbonyl)-N-ethylpiperazine-1-carboxamide]	> 6.30	5.00 to 6.00
CCC(=O)N1CCN(C(=O)c2cnc3ccccc3c2N2CCC(C)(C#N)CC2)CC1 [Example 94, 4-methyl-1-(3-(4-propionylpiperazine-1-carbonyl)quinolin-4-yl)piperidine-4-carbonitrile]	6.00 to 6.30	< 5.00
COc1ccc2ncc(C(=O)N3CCC(F)(F)CC3)c(N3CCC4(CC3)OCCO4)c2c1 [Example 32, (4,4-difluoropiperidin-1-yl)(6-methoxy-4-(1,4-dioxa-8-azaspiro[4.5]decan-8-yl)quinolin-3-yl)methanone]	6.00 to 6.30	< 5.00
CC1(C#N)CCN(c2c(C(=O)N3CCC(C(=O)C4CC4)CC3)cnc3c(F)cc(F)cc23)CC1 [Example 195, 1-(3-(4-(cyclopropanecarbonyl)piperidine-1-carbonyl)-6,8-difluoroquinolin-4-yl)-4-methylpiperidine-4-carbonitrile]	> 6.30	5.00 to 6.00
COc1ccc2ncc(C(=O)N3CCN(C(=O)C4CC4)CC3)c(N3CCC(C#N)CC3)c2c1 [Example 25, 1-(3-(4-(cyclopropanecarbonyl)piperazine-1-carbonyl)-6-methoxyquinolin-4-yl)piperidine-4-carbonitrile]	< 5.00	< 5.00
CS(=O)(=O)C1CCN(C(=O)c2cnc3ccsc3c2N2CCC(C#N)(c3ccccc3)CC2)CC1 [Example 293, 1-(6-(4-(methylsulfonyl)piperidine-1-carbonyl)thieno[3,2-b]pyridin-7-yl)-4-phenylpiperidine-4-carbonitrile]	> 6.30	> 6.30
O=C(C1CC1)C1CCN(C(=O)c2cnc3ccc(F)cc3c2N2CCC3(CC2)OCCO3)CC1 [Example 191, (4-(cyclopropanecarbonyl)piperidin-1-yl)(6-fluoro-4-(1,4-dioxa-8-azaspiro[4.5]decan-8-yl)quinolin-3-yl)methanone]	> 6.30	6.00 to 6.30
CCS(=O)(=O)N1CCN(C(=O)c2cnc3ccc(F)cc3c2N2CCC3(CC2)OCCO3)CC1 [Example 151, (4-(ethylsulfonyl)piperazin-1-yl)(6-fluoro-4-(1,4-dioxa-8-azaspiro[4.5]decan-8-yl)quinolin-3-yl)methanone]	> 6.30	5.00 to 6.00
CC(=O)N1CCN(C(=O)c2cnc3ccc(F)cc3c2N2CCC3(CC2)OCCO3)CC1 [Example 51, 1-(4-(6-fluoro-4-(1,4-dioxa-8-azaspiro[4.5]decan-8-yl)quinoline-3-carbonyl)piperazin-1-yl)ethanone]	> 6.30	< 5.00
CC1(O)CCN(C(=O)c2cnc3ccc(F)cc3c2-c2ccc(C3(C#N)CC3)cc2)CC1 [Cpd. 350, 1-(4-(6-fluoro-3-(4-hydroxy-4-methylpiperidine-1-carbonyl)quinolin-4-yl)phenyl)cyclopropane-1-carbonitrile]	> 6.30	5.00 to 6.00
CC1(C#N)CCN(c2c(C(=O)N3CCN(S(C)(=O)=O)CC3)cnc3c(F)cc(F)cc23)CC1 [Example 135, 1-(6,8-difluoro-3-(4-(methylsulfonyl)piperazine-1-carbonyl)quinolin-4-yl)-4-methylpiperidine-4-carbonitrile]	> 6.30	5.00 to 6.00
CNC(=O)Cn1cc(NC(=O)c2cnc3ccc(F)cc3c2-c2ccc(C3(C#N)CC3)cc2)cn1 [Cpd. 355, 4-(4-(1-cyanocyclopropyl)phenyl)-6-fluoro-N-(1-(2-(methylamino)-2-oxoethyl)-1H-pyrazol-4-yl)quinoline-3-carboxamide]	> 6.30	5.00 to 6.00
CS(=O)(=O)C1CCN(C(=O)c2cnc3ccc(F)cc3c2N2CCC(C#N)(c3ccccc3)CC2)CC1 [Example 269, 1-(6-fluoro-3-(4-(methylsulfonyl)piperidine-1-carbonyl)quinolin-4-yl)-4-phenylpiperidine-4-carbonitrile]	> 6.30	> 6.30
CN(C)C(=O)Cn1cc(NC(=O)c2cnc3ccc(F)cc3c2-c2ccc(C3(C#N)CC3)cc2)cn1 [Cpd. 346, 4-(4-(1-cyanocyclopropyl)phenyl)-N-(1-(2-(dimethylamino)-2-oxoethyl)-1H-pyrazol-4-yl)-6-fluoroquinoline-3-carboxamide]	5.00 to 6.00	< 5.00
N#CC1(c2ccccc2)CCN(c2c(C(=O)N[C@H]3CC[C@H](O)CC3)cnc3ccc(F)cc23)CC1 [Cpd. 325, 4-(4-cyano-4-phenylpiperidin-1-yl)-6-fluoro-N-((1R,4R)-4-hydroxycyclohexyl)quinoline-3-carboxamide]	> 6.30	> 6.30
COc1ccc2ncc(C(=O)N3CCN(c4ccncc4)CC3)c(N3CCC4(CC3)OCCO4)c2c1 [Example 15, (6-methoxy-4-(1,4-dioxa-8-azaspiro[4.5]decan-8-yl)quinolin-3-yl)(4-(pyridin-4-yl)piperazin-1-yl)methanone, TFA]	5.00 to 6.00	< 5.00
CCOC(=O)N1CCN(C(=O)c2cnc3ccccc3c2N2CCC(C)(C#N)CC2)CC1 [Example 100, Ethyl 4-(4-(4-cyano-4-methylpiperidin-1-yl)quinoline-3-carbonyl)piperazine-1-carboxylate]	6.00 to 6.30	< 5.00
N#CCC1CCN(c2c(C(=O)N3CCN(C(=O)C4CC4)CC3)cnc3ccc(F)cc23)CC1 [Example 213, 2-(1-(3-(4-(cyclopropanecarbonyl)piperazine-1-carbonyl)-6-fluoroquinolin-4-yl)piperidin-4-yl)acetonitrile]	5.00 to 6.00	5.00 to 6.00
CC1(C#N)CCN(c2c(C(=O)N3CCN(S(=O)(=O)N4CCCC4)CC3)cnc3cc(F)c(F)cc23)CC1 [Example 178, 1-(6,7-difluoro-3-(4-(pyrrolidin-1-ylsulfonyl)piperazine-1-carbonyl)quinolin-4-yl)-4-methylpiperidine-4-carbonitrile]	5.00 to 6.00	< 5.00
O=C(c1cnc2ccc(F)cc2c1N1CCC2(CC1)C(=O)Cc1ccccc12)N1CCN(C(=O)C2CC2)CC1 [Example 246, 1′-(3-(4-(cyclopropanecarbonyl)piperazine-1-carbonyl)-6-fluoroquinolin-4-yl)spiro[indene-1,4′-piperidin]-2(3H)-one]	> 6.30	5.00 to 6.00
N#CC1(c2ccccc2F)CCN(c2c(C(=O)N3CCN(C(=O)C4CC4)CC3)cnc3ccc(F)cc23)CC1 [Example 276, 1-(3-(4-(cyclopropanecareonyl)piperazine-1-carbonyl)-6-fluoroquinolin-4-yl)-4-(2-fluorophenyl)piperidine-4-carbonitrile]	> 6.30	> 6.30
CCC(=O)N1CCN(C(=O)c2cnc3cc(OC)ccc3c2N2CCC(C)(C#N)CC2)CC1 [Example 102, 1-(7-methoxy-3-(4-propionylpiperazine-1-carbonyl)quinolin-4-yl)-4-methylpiperidine-4-carbonitrile]	> 6.30	5.00 to 6.00
CC(C)C(=O)N1CCN(C(=O)c2cnc3ccccc3c2N2CCC(C)(C#N)CC2)CC1 [Example 95, 1-(3-(4-isobutyrylpiperazine-1-carbonyl)quinolin-4-yl)-4-methylpiperidine-4-carbonitrile]	> 6.30	< 5.00
CC(C)(O)C1(c2ccccc2)CCN(c2c(C(=O)N3CCN(S(C)(=O)=O)CC3)cnc3ccc(F)cc23)CC1 [Example 258, (6-fluoro-4-(4-(2-hydroxypropan-2-yl)-4-phenylpiperidin-1-yl)quinolin-3-yl)(4-(methylsulfonyl)piperazin-1-yl)methanone]	6.00 to 6.30	5.00 to 6.00

From patent publication US11795177B2, “Substituted quinoline analogs as aldehyde dehydrogenase 1A1 (ALDH1A1) inhibitors” (THE UNITED STATES OF AMERICA, AS REPRESENTED BY THE …, priority 2017, dated 2023)
